Test results published in PMC10746543, “Design principles for cyclin K molecular glue degraders” (Nature Chemical Biology, 2023).
Where “and” joins values, the source holds several entries; their conditions need not be identical. Equal values may be shown once. Read-outs that look alike come from different tables or passages of the source.

How the values were obtained:
CDK12–cyclin K and DDB1 [1] = target: T1, CDK12–cyclin K and DDB1 (Homo sapiens, UniProt Q16531+Q9NYV4, K965R); assay: TR-FRET ternary complex formation assay (compound titration); type: binding
T1 construct: His6–CDK12 (a.a. 713–1,052); full-length or beta-propeller B domain deletion (ΔBPB: a.a. 396–705 deleted) constructs of His6–DDB1ΔBPB, StrepII–Avi–DDB1, or His6–Spy–DDB1; made in house; host or cells: Trichoplusia ni High Five insect cells (baculovirus)
How it was run: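 Background fluorescence is reduced by reading 70 μs after excitation, and complex formation is followed as the 520:490 nm fluorescence ratio.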

CDK12–cyclin K and DDB1 [2] = target: T1, CDK12–cyclin K and DDB1; assay: TR-FRET Kd determination, quadratic fit, 50 nM or 10 nM CDK12–cyclin K; type: binding
From the text: Equation (2) is a quadratic binding equation used for Kd determination,where Top and Bottom refer to the curve plateaus. […]

[3] = 10 nM CDK12-cyclin K + 100 nM DDB1, n = 1

T1 sequence (Q9NYV4 713-1052 K965R): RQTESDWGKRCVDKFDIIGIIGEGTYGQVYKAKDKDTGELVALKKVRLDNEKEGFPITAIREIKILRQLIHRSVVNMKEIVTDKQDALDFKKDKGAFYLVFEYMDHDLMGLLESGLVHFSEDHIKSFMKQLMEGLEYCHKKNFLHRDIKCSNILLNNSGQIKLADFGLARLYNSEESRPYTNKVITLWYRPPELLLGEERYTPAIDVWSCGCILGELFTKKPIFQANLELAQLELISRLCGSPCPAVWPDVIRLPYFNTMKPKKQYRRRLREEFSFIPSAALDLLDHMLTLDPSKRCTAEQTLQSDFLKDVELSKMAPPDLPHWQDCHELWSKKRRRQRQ
T1 sequence (O75909 1-267 partner): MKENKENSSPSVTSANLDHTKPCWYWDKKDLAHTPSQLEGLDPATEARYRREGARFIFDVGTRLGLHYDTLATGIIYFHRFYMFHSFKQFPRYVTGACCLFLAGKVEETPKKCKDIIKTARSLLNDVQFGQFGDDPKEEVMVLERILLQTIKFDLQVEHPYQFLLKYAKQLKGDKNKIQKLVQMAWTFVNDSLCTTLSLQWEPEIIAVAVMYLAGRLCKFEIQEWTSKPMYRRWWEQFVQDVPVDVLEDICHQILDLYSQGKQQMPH
T1 sequence (Q16531 whole entry): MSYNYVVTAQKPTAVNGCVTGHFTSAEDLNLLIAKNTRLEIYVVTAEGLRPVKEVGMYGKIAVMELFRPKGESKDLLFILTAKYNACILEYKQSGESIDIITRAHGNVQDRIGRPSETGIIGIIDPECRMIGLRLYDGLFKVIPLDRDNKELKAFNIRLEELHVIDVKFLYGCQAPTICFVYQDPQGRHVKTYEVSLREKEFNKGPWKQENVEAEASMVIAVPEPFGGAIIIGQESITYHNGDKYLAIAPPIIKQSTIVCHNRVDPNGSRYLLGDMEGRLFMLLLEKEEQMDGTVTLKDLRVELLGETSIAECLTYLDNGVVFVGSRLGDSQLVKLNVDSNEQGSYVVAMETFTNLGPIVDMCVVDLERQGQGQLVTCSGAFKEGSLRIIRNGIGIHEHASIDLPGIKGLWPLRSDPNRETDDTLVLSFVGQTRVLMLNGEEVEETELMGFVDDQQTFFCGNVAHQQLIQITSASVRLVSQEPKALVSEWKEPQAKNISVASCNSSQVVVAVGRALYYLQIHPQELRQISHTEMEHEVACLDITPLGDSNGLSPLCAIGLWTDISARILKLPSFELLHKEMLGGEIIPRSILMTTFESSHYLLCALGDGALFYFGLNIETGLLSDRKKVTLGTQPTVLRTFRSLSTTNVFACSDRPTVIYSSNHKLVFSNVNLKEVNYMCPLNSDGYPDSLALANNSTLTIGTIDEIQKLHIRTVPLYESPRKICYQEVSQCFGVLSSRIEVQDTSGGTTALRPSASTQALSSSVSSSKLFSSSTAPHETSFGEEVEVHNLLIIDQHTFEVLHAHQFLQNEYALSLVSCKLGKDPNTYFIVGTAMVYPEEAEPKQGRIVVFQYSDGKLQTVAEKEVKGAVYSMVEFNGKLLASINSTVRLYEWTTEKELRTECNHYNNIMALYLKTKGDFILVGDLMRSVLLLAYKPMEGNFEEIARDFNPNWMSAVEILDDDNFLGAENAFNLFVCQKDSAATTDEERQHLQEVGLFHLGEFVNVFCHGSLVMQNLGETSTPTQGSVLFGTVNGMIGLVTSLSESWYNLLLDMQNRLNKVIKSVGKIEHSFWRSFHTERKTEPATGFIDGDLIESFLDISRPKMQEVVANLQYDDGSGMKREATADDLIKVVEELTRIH

With `CC[C@H](CO)Nc1nc(NCc2nc3cc(Cl)c(Cl)cc3[nH]2)c2ncn(C(C)C)c2n1` [DS17] the “TR-FRET signal at compound concentration 0.468 nM” value (CDK12–cyclin K and DDB1 [1]; compound concentration 0.468 nM, raw replicate titration data) was 0.2691 and 0.2681 and 0.2563 and 0.2452, the “TR-FRET signal at compound concentration 2.16 nM” value (CDK12–cyclin K and DDB1 [1]; compound concentration 2.16 nM, raw replicate titration data) was 0.3644 and 0.3794 and 0.3582 and 0.3855 and the “TR-FRET signal at compound concentration 3.6 nM” value (CDK12–cyclin K and DDB1 [1]; compound concentration 3.6 nM, raw replicate titration data) was 0.5749 and 0.6382 and 0.6238 and 0.6481. For the same compound, the “TR-FRET signal at compound concentration 7.92001 nM” value (CDK12–cyclin K and DDB1 [1]; compound concentration 7.92001 nM, raw replicate titration data) was 1.103 and 1.253 and 1.275 and 1.336, the “TR-FRET signal at compound concentration 15.84 nM” value (CDK12–cyclin K and DDB1 [1]; compound concentration 15.84 nM, raw replicate titration data) was 2.342 and 2.592 and 2.673 and 2.949 and the “TR-FRET signal at compound concentration 30.96 nM” value (CDK12–cyclin K and DDB1 [1]; compound concentration 30.96 nM, raw replicate titration data) was 3.985 and 4.064 and 4.264 and 4.269. The “TR-FRET signal at compound concentration 62.6401 nM” value (CDK12–cyclin K and DDB1 [1]; compound concentration 62.6401 nM, raw replicate titration data) was 4.135 and 4.141 and 4.254 and 4.343, the “TR-FRET signal at compound concentration 125.28 nM” value (CDK12–cyclin K and DDB1 [1]; compound concentration 125.28 nM, raw replicate titration data) was 4.238 and 4.311 and 4.291 and 4.347 and the “TR-FRET signal at compound concentration 244.8 nM” value (CDK12–cyclin K and DDB1 [1]; compound concentration 244.8 nM, raw replicate titration data) was 4.1978 and 4.255 and 4.25 and 4.345. For the same compound, the “TR-FRET signal at compound concentration 993.601 nM” value (CDK12–cyclin K and DDB1 [1]; compound concentration 993.601 nM, raw replicate titration data) was 4.229 and 4.264 and 4.321 and 4.299, the “TR-FRET signal at compound concentration 2001.6 nM” value (CDK12–cyclin K and DDB1 [1]; compound concentration 2001.6 nM, raw replicate titration data) was 4.223 and 4.116 and 4.3288 and 4.427 and the EC50 (CDK12–cyclin K and DDB1 [1]; in vitro complex formation, 50 nM CDK12–cyclin K, 100 nM DDB1, text and figures, read-out: TR-FRET EC50) was 13 ± 0.3 nM. It also gave an EC50 (CDK12–cyclin K and DDB1 [1]; sheet MOESM7, read-out: log TR-FRET EC50 (converted)) of 13.2 nM, an EC50 (CDK12–cyclin K and DDB1 [1]; source data sheet correlations, read-out: TR-FRET EC50) of 13.2 nM and a Kd (CDK12–cyclin K and DDB1 [2]; [3]) of under 1 nM. For the same compound, the “TR-FRET Kd*” value (CDK12–cyclin K and DDB1 [2]; [3]) was “subnanomolar range”, the TR-FRET signal (CDK12–cyclin K and DDB1 [2]; 10 nM CDK12-cyclin K, compound 0.468 nM) was 0.1296 and the TR-FRET signal (CDK12–cyclin K and DDB1 [2]; 10 nM CDK12-cyclin K, compound 2.16 nM) was 0.2552. It also gave a TR-FRET signal (CDK12–cyclin K and DDB1 [2]; 10 nM CDK12-cyclin K, compound 3.6 nM) of 0.4087, a TR-FRET signal (CDK12–cyclin K and DDB1 [2]; 10 nM CDK12-cyclin K, compound 7.92 nM) of 0.5094 and a TR-FRET signal (CDK12–cyclin K and DDB1 [2]; 10 nM CDK12-cyclin K, compound 15.84 nM) of 0.5468. It also gave a TR-FRET signal (CDK12–cyclin K and DDB1 [2]; 10 nM CDK12-cyclin K, compound 30.96 nM) of 0.5623, a TR-FRET signal (CDK12–cyclin K and DDB1 [2]; 10 nM CDK12-cyclin K, compound 62.6399 nM) of 0.5693 and a TR-FRET signal (CDK12–cyclin K and DDB1 [2]; 10 nM CDK12-cyclin K, compound 125.279 nM) of 0.582. The TR-FRET signal (CDK12–cyclin K and DDB1 [2]; 10 nM CDK12-cyclin K, compound 244.8 nM) was 0.5785, the TR-FRET signal (CDK12–cyclin K and DDB1 [2]; 10 nM CDK12-cyclin K, compound 993.6 nM) was 0.5613 and the TR-FRET signal (CDK12–cyclin K and DDB1 [2]; 10 nM CDK12-cyclin K, compound 2001.6 nM) was 0.5626. For the same compound, the Kd (CDK12–cyclin K and DDB1 [2]; 50 nM CDK12-cyclin K + 100 nM DDB1, n = 1) was under 1 nM, the TR-FRET signal (CDK12–cyclin K and DDB1 [2]; 50 nM CDK12-cyclin K, compound 0.468 nM) was 0.2322 and the TR-FRET signal (CDK12–cyclin K and DDB1 [2]; 50 nM CDK12-cyclin K, compound 2.16 nM) was 0.3077. It also gave a TR-FRET signal (CDK12–cyclin K and DDB1 [2]; 50 nM CDK12-cyclin K, compound 3.6 nM) of 0.4714, a TR-FRET signal (CDK12–cyclin K and DDB1 [2]; 50 nM CDK12-cyclin K, compound 7.92 nM) of 0.8383 and a TR-FRET signal (CDK12–cyclin K and DDB1 [2]; 50 nM CDK12-cyclin K, compound 15.84 nM) of 1.774. The TR-FRET signal (CDK12–cyclin K and DDB1 [2]; 50 nM CDK12-cyclin K, compound 30.96 nM) was 3.053, the TR-FRET signal (CDK12–cyclin K and DDB1 [2]; 50 nM CDK12-cyclin K, compound 62.6399 nM) was 3.258 and the TR-FRET signal (CDK12–cyclin K and DDB1 [2]; 50 nM CDK12-cyclin K, compound 125.279 nM) was 3.326. The TR-FRET signal (CDK12–cyclin K and DDB1 [2]; 50 nM CDK12-cyclin K, compound 244.8 nM) was 3.353, the TR-FRET signal (CDK12–cyclin K and DDB1 [2]; 50 nM CDK12-cyclin K, compound 993.6 nM) was 3.25 and the TR-FRET signal (CDK12–cyclin K and DDB1 [2]; 50 nM CDK12-cyclin K, compound 2001.6 nM) was 3.218.
